31 compounds from patent US7420056B2, “Substituted bicyclic imidazo-3-ylamine compounds” (Gruenenthal GmbH, priority 2004, dated 2008) can be followed below.

The structures appear in SMILES notation.

Chain of mGluR5 receptor (I3LUI7 19-1212): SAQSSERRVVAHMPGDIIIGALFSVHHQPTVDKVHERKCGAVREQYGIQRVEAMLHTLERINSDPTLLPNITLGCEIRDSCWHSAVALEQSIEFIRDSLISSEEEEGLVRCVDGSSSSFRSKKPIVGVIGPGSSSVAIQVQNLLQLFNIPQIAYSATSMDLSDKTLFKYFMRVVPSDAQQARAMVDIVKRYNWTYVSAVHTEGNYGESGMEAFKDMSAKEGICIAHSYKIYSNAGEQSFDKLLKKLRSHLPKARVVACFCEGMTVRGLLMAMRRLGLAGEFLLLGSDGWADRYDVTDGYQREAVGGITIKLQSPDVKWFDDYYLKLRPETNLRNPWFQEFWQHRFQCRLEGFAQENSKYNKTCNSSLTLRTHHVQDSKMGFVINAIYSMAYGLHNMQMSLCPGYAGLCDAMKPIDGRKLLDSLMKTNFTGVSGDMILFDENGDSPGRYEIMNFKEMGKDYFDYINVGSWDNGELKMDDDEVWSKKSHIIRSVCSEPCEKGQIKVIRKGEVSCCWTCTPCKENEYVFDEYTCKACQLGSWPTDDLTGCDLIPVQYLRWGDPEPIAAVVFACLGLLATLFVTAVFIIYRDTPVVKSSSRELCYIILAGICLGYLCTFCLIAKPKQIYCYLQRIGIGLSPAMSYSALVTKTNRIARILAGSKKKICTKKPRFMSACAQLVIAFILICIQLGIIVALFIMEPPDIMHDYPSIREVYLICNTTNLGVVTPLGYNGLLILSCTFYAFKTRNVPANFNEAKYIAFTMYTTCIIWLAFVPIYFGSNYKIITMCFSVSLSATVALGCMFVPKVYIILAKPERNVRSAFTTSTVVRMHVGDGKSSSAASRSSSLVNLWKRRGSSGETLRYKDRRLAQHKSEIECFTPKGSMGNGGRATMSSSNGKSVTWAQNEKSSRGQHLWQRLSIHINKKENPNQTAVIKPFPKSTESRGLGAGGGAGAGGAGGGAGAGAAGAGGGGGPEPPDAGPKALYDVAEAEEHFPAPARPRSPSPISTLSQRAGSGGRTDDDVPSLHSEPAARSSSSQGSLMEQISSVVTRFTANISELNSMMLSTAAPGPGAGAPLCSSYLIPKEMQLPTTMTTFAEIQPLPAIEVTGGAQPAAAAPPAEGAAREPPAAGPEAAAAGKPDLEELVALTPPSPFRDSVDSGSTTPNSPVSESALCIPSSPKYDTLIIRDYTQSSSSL

The first experiment has as its target mGluR5 receptor (Sus scrofa, UniProt I3LUI7). Nature of the experiment: Affinity for the mGluR5 receptor: inhibition of 3[H]-MPEP binding in pig brain homogenate. Conditions: 10 μM compound, 5 nM 3[H]-MPEP, read-out: mGluR5 receptor inhibition of ^3[H]-MPEP binding [10 μM] in % at a concentration of the example compounds of 10 μM. Here is the method:
1. Method for Determining Affinity for the mGluR5 Receptor
Pig brain homogenate is produced by homogenisation (Polytron Pt 3000, Kinematica AG, 10,000 revolutions per minute for 90 seconds) of pig brain hemispheres without medulla, cerebellum and pons in a buffer of pH 8.0 (30 mM Hepes, Sigma, order number H3375+1 tablet Complete Roche Diagnostics, order number 1836145 made up to 100 ml) in a ratio of 1:20 (brain weight/volume) and differential centrifugation at 900×g and 40,000×g. 450 μg of protein from brain homogenate is incubated in each case in 250 μl incubation batches in 96-well microtitre plates with 5 nM 3[H]-MPEP (Tocris, order number R1212) (MPEP=2-methyl-6-[…]) and the compounds to be investigated (10 μM in the test) in the buffer (as above) at room temperature for 60 minutes.
The batches are then filtered with the assistance of a Brandel Cell Harvester (Brandel, Grade Robotic 9600) on Unifilter plates with glass filter mats (Perkin Elmer, order number 6005177) and then washed 3 times with buffer (as above) using 250 μl per sample. The filter plates are then dried for 60 minutes at 55° C. Then 30 μl of Ultima Gold™ scintillating material (Packard BioScience, order number 6013159) is added per well and after 3 hours the samples are measured using the β counter (Microbeta, Perkin Elmer). Nonspecific binding is determined by the addition of 10 μM MPEP (Tocris, order number 1212).
Consider `Fc1ccc(Nc2c(-c3ccc(C#Cc4ccccc4)s3)nc3cc(-c4ccccc4)ccn23)cc1Cl` [Example 33, (3-chloro-4-fluoro-phenyl)-[7-phenyl-2-(5-phenylethynyl-thiophen-2-yl)-imidazo[1,2-a]pyridin-3-yl]-amine], for which the inhibition at 10 µM stood at 98%.

As for `COc1ccc(CNc2c(-c3ccc(C#Cc4ccccc4)s3)nc3nc(C)ccn23)cc1` [Example 34, (4-methoxy-benzyl)-[7-methyl-2-(5-phenylethynyl-thiophen-2-yl)-imidazo[1,2-a]pyrimidin-3-yl]-amine], the inhibition at 10 µM came out at 98%.

For `Cc1cccn2c(NC(C)c3ccccc3)c(-c3ccc(C#Cc4ccccc4)s3)nc12` (stereo not shown) [Example 35, [8-methyl-2-(5-phenylethynyl-thiophen-2-yl)-imidazo[1,2-a]pyridin-3-yl]-(1-phenyl-ethyl)-amine], the inhibition at 10 µM is 95%.

`Cc1ccn2c(NC(C)c3ccccc3)c(-c3ccc(C#Cc4ccccc4)s3)nc2n1` (stereo not shown) [Example 36, [7-methyl-2-(5-phenylethynyl-thiophen-2-yl)-imidazo[1,2-a]pyrimidin-3-yl]-(1-phenyl-ethyl)-amine]: the inhibition at 10 µM turned out to be 100%.

With `COc1ccccc1CNc1c(-c2ccc(C#Cc3ccccc3)s2)nc2cc(C)ccn12` [Example 37, (2-methoxy-benzyl)-[7-methyl-2-(5-phenylethynyl-thiophen-2-yl)-imidazo[1,2-a]pyridin-3-yl]-amine], the inhibition at 10 µM was 85%.

Consider `COc1ccccc1CNc1c(-c2ccc(C#Cc3ccccc3)s2)nc2ccccn12` [Example 38, (2-methoxy-benzyl)-[2-(5-phenylethynyl-thiophen-2-yl)-imidazo[1,2-a]pyridin-3-yl]-amine], for which the inhibition at 10 µM stood at 87%.

Turning to `Clc1ccccc1CNc1c(-c2ccc(C#Cc3ccccc3)s2)nc2ccccn12` [Example 39, (2-chloro-benzyl)-[2-(5-phenylethynyl-thiophen-2-yl)-imidazo[1,2-a]pyridin-3-yl]-amine], the inhibition at 10 µM was 72%.

As for `COc1ccccc1CNc1c(-c2ccc(C#Cc3ccccc3)s2)nc2nc(C)ccn12` [Example 40, (2-methoxy-benzyl)-[7-methyl-2-(5-phenylethynyl-thiophen-2-yl)-imidazo[1,2-a]pyrimidin-3-yl]-amine], the inhibition at 10 µM was 87%.

In the case of `COc1cccc(Nc2c(-c3ccc(C#Cc4ccccc4)s3)nc3ccc(C)cn23)c1` [Example 41, (3-methoxy-phenyl)-[6-methyl-2-(5-phenylethynyl-thiophen-2-yl)-imidazo[1,2-a]pyridin-3-yl]-amine], the inhibition at 10 µM came to 73%.

On to `COc1cccc(Nc2c(-c3ccc(C#Cc4ccccc4)s3)nc3cc(C)cc(C)n23)c1` [Example 42, [5,7-dimethyl-2-(5-phenylethynyl-thiophen-2-yl)-imidazo[1,2-a]pyridin-3-yl]-(3-methoxy-phenyl)-amine], for which the inhibition at 10 µM was 93%.

For `COc1cccc(Nc2c(-c3ccc(C#Cc4ccccc4)s3)nc3cnccn23)c1` [Example 43, (3-methoxy-phenyl)-[2-(5-phenylethynyl-thiophen-2-yl)-imidazo[1,2-a]pyrazin-3-yl]-amine], the inhibition at 10 µM was determined as 83%.

Consider `CCc1ccn2c(NCc3ccccc3OC)c(-c3ccc(C#Cc4ccccc4)s3)nc2c1` [Example 44, [7-ethyl-2-(5-phenylethynyl-thiophen-2-yl)-imidazo[1,2-a]pyridin-3-yl]-(2-methoxy-benzyl)-amine], for which the inhibition at 10 µM is 75%.

On to `CCc1ccn2c(NCc3ccccc3Cl)c(-c3ccc(C#Cc4ccccc4)s3)nc2c1` [Example 45, (2-chloro-benzyl)-[7-ethyl-2-(5-phenylethynyl-thiophen-2-yl)-imidazo[1,2-a]pyridin-3-yl]-amine], for which the inhibition at 10 µM is 93%.

In the case of `CC(C)(C)c1ccn2c(Nc3ccc(F)c(Cl)c3)c(-c3ccc(C#Cc4ccccc4)s3)nc2c1` [Example 46, [7-tert-butyl-2-(5-phenylethynyl-thiophen-2-yl)-imidazo[1,2-a]pyridin-3-yl]-(3-chloro-4-fluoro-phenyl)-amine], the inhibition at 10 µM was 76%.

With `COc1cccc(CNc2c(-c3ccc(C#Cc4ccccc4)s3)nc3nc(C)ccn23)c1` [Example 47, (3-methoxy-benzyl)-[7-methyl-2-(5-phenylethynyl-thiophen-2-yl)-imidazo[1,2-a]pyrimidin-3-yl]-amine], the inhibition at 10 µM was found to be 79%.

Regarding `CCc1ccn2c(Nc3ccccc3F)c(-c3ccc(C#Cc4ccccc4)s3)nc2c1` [Example 48, [7-ethyl-2-(5-phenylethynyl-thiophen-2-yl)-imidazo[1,2-a]pyridin-3-yl]-(2-fluoro-phenyl)-amine], the inhibition at 10 µM is 82%.

Turning to `CC(C)(C)c1ccn2c(Nc3ccccc3F)c(-c3ccc(C#Cc4ccccc4)s3)nc2c1` [Example 49, [7-tert-butyl-2-(5-phenylethynyl-thiophen-2-yl)-imidazo[1,2-a]pyridin-3-yl]-(2-fluoro-phenyl)-amine], the inhibition at 10 µM was determined as 85%.

Consider `Fc1ccc(Nc2c(-c3ccc(C#Cc4ccccc4)s3)nc3cc(CCCc4ccccc4)ccn23)c(F)c1` [Example 50, (2,4-difluoro-phenyl)-[2-(5-phenylethynyl-thiophen-2-yl)-7-(3-phenyl-propyl)-imidazo[1,2-a]pyridin-3-yl]-amine], for which the inhibition at 10 µM amounted to 90%.

For `Cc1ccn2c(NCc3ccc(F)cc3)c(-c3ccc(C#Cc4ccccc4)s3)nc2c1` [Example 51, (4-fluoro-benzyl)-[7-methyl-2-(5-phenylethynyl-thiophen-2-yl)-imidazo[1,2-a]pyridin-3-yl]-amine], the inhibition at 10 µM was determined as 89%.

As for `Cc1cc(C)n2c(NCc3ccc(F)cc3)c(-c3ccc(C#Cc4ccccc4)s3)nc2c1` [Example 52, [5,7-dimethyl-2-(5-phenylethynyl-thiophen-2-yl)-imidazo[1,2-a]pyridin-3-yl]-(4-fluoro-benzyl)-amine], the inhibition at 10 µM stood at 75%.

As for `CCc1ccn2c(NCc3cccc(C(F)(F)F)c3)c(-c3ccc(C#Cc4ccccc4)s3)nc2c1` [Example 53, [7-ethyl-2-(5-phenylethynyl-thiophen-2-yl)-imidazo[1,2-a]pyridin-3-yl]-(3-trifluoromethyl-benzyl)-amine], the inhibition at 10 µM is 80%.

`CC(C)c1ccn2c(NCc3cccc(C(F)(F)F)c3)c(-c3ccc(C#Cc4ccccc4)s3)nc2c1` [Example 54, [7-isopropyl-2-(5-phenylethynyl-thiophen-2-yl)-imidazo[1,2-a]pyridin-3-yl]-(3-trifluoromethyl-benzyl)-amine]: the inhibition at 10 µM turned out to be 69%.

Take `CC(C)(C)Nc1c(-c2cc(C#Cc3ccccc3)cs2)nc2cnccn12` [Example 55, tert-butyl-[2-(4-phenylethynyl-thiophen-2-yl)-imidazo[1,2-a]pyrazin-3-yl]-amine]: the inhibition at 10 µM turned out to be 77%.

For `CC(C)(C)CC(C)(C)Nc1c(-c2ccc(C#Cc3ccccc3)s2)nc2cnccn12` [Example 56, [2-(5-phenylethynyl-thiophen-2-yl)-imidazo[1,2-a]pyrazin-3-yl]-(1,1,3,3-tetramethyl-butyl)-amine], the inhibition at 10 µM is 100%.

For the compound `CCCCNc1c(-c2cc(C#Cc3ccccc3)cs2)nc2cnccn12` [Example 57, butyl-[2-(4-phenylethynyl-thiophen-2-yl)-imidazo[1,2-a]pyrazin-3-yl]-amine], the inhibition at 10 µM came to 94%.

On to `CC(C)(C)CC(C)(C)Nc1c(-c2ccc(C#Cc3ccccc3)s2)nc2ccc(Cl)cn12` [Example 62, [6-chloro-2-(5-phenylethynyl-thiophen-2-yl)-imidazo[1,2-a]pyridin-3-yl]-(1,1,3,3-tetramethyl-butyl)-amine], for which the inhibition at 10 µM amounted to 26%.

`CC(C)(C)CC(C)(C)Nc1c(-c2ccc(C#Cc3ccccc3)s2)nc2c(Cl)cc(Cl)cn12` [Example 63, [6,8-dichloro-2-(5-phenylethynyl-thiophen-2-yl)-imidazo[1,2-a]pyridin-3-yl]-(1,1,3,3-tetramethyl-butyl)-amine]: the inhibition at 10 µM was found to be 65%.

The same experiment, now with this note: 3[H]-MPEP binding.
Regarding `CC(C)(C)CC(C)(C)Nc1c(-c2ccc(C#Cc3ccccc3)s2)nc2ccccn12` [Example 59, [2-(5-phenylethynyl-thiophen-2-yl)-imidazo[1,2-a]pyridin-3-yl]-(1,1,3,3-tetramethyl-butyl)-amine], the IC50 (as a rule, the concentration that inhibits the measured activity by half) is 2070 nM.

Take `CC(C)(C)CC(C)(C)Nc1c(-c2ccc(C#Cc3cccnc3)s2)nc2cnccn12` [Example 60, [2-(5-Pyridin-3-ylethynyl-thiophen-2-yl)-imidazo[1,2-a]pyrazin-3-yl]-(1,1,3,3-tetramethyl-butyl)-amine]: the IC50 amounted to 1200 nM.

Regarding `CC(C)(C)CC(C)(C)Nc1c(-c2ccc(C#Cc3ccncc3)s2)nc2cnccn12` [Example 61, [2-(5-pyridin-4-ylethynyl-thiophen-2-yl)-imidazo[1,2-a]pyrazin-3-yl]-(1,1,3,3-tetramethyl-butyl)-amine], the IC50 is 42.5 nM.

Take `CC(C)(C)CC(C)(C)Nc1c(-c2ccc(C#Cc3ccccn3)s2)nc2cnccn12` [Example 64, [2-(5-pyridin-2-ylethynyl-thiophen-2-yl)-imidazo[1,2-a]pyrazin-3-yl]-(1,1,3,3-tetramethyl-butyl)-amine]: the IC50 came to 33 nM.
